Results from patent publication US9695155B2, “Herbicidal substituted pyrimidinyloxy benzene compounds” (E. I. DU PONT DE NEMOURS AND COMPANY, priority 2013, dated 2017).

Key:
[1] = system: barnyardgrass; test: Test C postemergence; type: in vivo, Echinochloa crus-galli; conditions: for Barnyardgrass plant response rating: 16 g ai/ha, visual rating; for Barnyardgrass plant response rating / Plant response rating (0 to 100), Barnyardgrass: postemergence; for Barnyardgrass plant response rating / Plant response rating, Barnyardgrass: scale 0 to 100 (0 no effect, 100 complete control); for Plant response rating (0 to 100), Barnyardgrass: 125 g ai/ha; for Plant response rating, Barnyardgrass: Postemergence
How it was run: (§1)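 Whole-plant greenhouse test with surfactant-containing solvent formulation, applied preemergence to sown loam–sand pots or postemergence to 2–18 cm plants. Scored by eye 13 to 15 days on, 0–100 scale.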

[2] = system: blackgrass; test: Test C preemergence; type: in vivo, Alopecurus myosuroides; conditions: for Blackgrass plant response rating: preemergence; for Plant response rating, Blackgrass: Preemergence, 31 g ai/ha, scale 0 to 100, 0 no effect, 100 complete control
How it was run: as §1

[3] = system: corn; test: Test C preemergence; type: in vivo, Zea mays; conditions: for Corn plant response rating: preemergence; for Plant response rating, Corn: Preemergence, 31 g ai/ha, scale 0 to 100, 0 no effect, 100 complete control
How it was run: as §1

[4] = system: pigweed; test: Test C postemergence; type: in vivo, Amaranthus retroflexus; conditions: for Plant response rating (0 to 100), Pigweed: 125 g ai/ha, postemergence; for Plant response rating, Pigweed: Postemergence, scale 0 to 100 (0 no effect, 100 complete control)
How it was run: as §1

[5] = system: waterhemp; test: Test C postemergence; type: in vivo, Amaranthus rudis; conditions: for Plant response rating (0 to 100), Waterhemp: 125 g ai/ha, postemergence; for Plant response rating, Waterhemp: Postemergence, scale 0 to 100 (0 no effect, 100 complete control)
How it was run: as §1

[6] = system: barnyardgrass; test: Test A preemergence; type: in vivo, Echinochloa crus-galli; conditions: for Plant response rating, Barnyardgrass: 125 g ai/ha, 0 to 100 scale where 0 is no effect and 100 is complete control; for Barnyardgrass plant response rating: 500 g ai/ha, 0 to 100 scale, 0 no effect, 100 complete control, approx. 10 days
How it was run: (§2)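 Injury scores run from 0, no effect, to 100, complete control, judged by eye against untreated plants roughly 10 days after treatment. Chemicals carried a surfactant in a non-phytotoxic solvent and went onto loam–sand soil preemergence or onto one- to two-leaf seedlings postemergence.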

[7] = system: giant foxtail; test: Test A preemergence; type: in vivo, Setaria faberii; conditions: for Plant response rating, Foxtail, Giant: 125 g ai/ha, 0 to 100 scale where 0 is no effect and 100 is complete control; for Foxtail, Giant plant response rating: 500 g ai/ha, 0 to 100 scale, 0 no effect, 100 complete control, approx. 10 days
How it was run: as §2

[8] = system: ragweed; test: Test C preemergence; type: in vivo, Ambrosia elatior; conditions: for Ragweed plant response rating: preemergence; for Plant response rating, Ragweed: Preemergence, 31 g ai/ha, scale 0 to 100, 0 no effect, 100 complete control
How it was run: as §1

[9] = system: blackgrass; test: Test C postemergence; type: in vivo, Alopecurus myosuroides; conditions: for Blackgrass plant response rating: 16 g ai/ha, visual rating; for Blackgrass plant response rating / Plant response rating (0 to 100), Blackgrass: postemergence; for Blackgrass plant response rating / Plant response rating, Blackgrass: scale 0 to 100 (0 no effect, 100 complete control); for Plant response rating (0 to 100), Blackgrass: 125 g ai/ha; for Plant response rating, Blackgrass: Postemergence
How it was run: as §1

[10] = system: corn; test: Test C postemergence; type: in vivo, Zea mays; conditions: for Corn plant response rating: 16 g ai/ha, visual rating; for Corn plant response rating / Plant response rating (0 to 100), Corn: postemergence; for Corn plant response rating / Plant response rating, Corn: scale 0 to 100 (0 no effect, 100 complete control); for Plant response rating (0 to 100), Corn: 125 g ai/ha; for Plant response rating, Corn: Postemergence
How it was run: as §1

[11] = system: barnyardgrass; test: Test C preemergence; type: in vivo, Echinochloa crus-galli; conditions: for Barnyardgrass plant response rating: preemergence; for Plant response rating, Barnyardgrass: Preemergence, 31 g ai/ha, scale 0 to 100, 0 no effect, 100 complete control
How it was run: as §1

[12] = system: soybean; test: Test C preemergence; type: in vivo, Glycine max; conditions: for Soybean plant response rating: preemergence; for Plant response rating, Soybean: Preemergence, 31 g ai/ha, scale 0 to 100, 0 no effect, 100 complete control
How it was run: as §1

[13] = system: morningglory; test: Test C preemergence; type: in vivo, Ipomoea coccinea; conditions: for Morningglory plant response rating: preemergence; for Plant response rating, Morningglory: Preemergence, 31 g ai/ha, scale 0 to 100, 0 no effect, 100 complete control
How it was run: as §1

[14] = system: lambsquarters; test: Test C postemergence; type: in vivo, Chenopodium album; conditions: for Plant response rating (0 to 100), Lambsquarters: 125 g ai/ha, postemergence; for Plant response rating, Lambsquarters: Postemergence, scale 0 to 100 (0 no effect, 100 complete control)
How it was run: as §1

[15] = system: waterhemp; test: Test C preemergence; type: in vivo, Amaranthus rudis; conditions: for Waterhemp plant response rating: preemergence; for Plant response rating, Waterhemp: Preemergence, 31 g ai/ha, scale 0 to 100, 0 no effect, 100 complete control
How it was run: as §1

[16] = system: Italian ryegrass; test: Test C postemergence; type: in vivo, Lolium multiflorum; conditions: for Plant response rating (0 to 100), Ryegrass, Italian: 125 g ai/ha, postemergence; for Plant response rating, Ryegrass, Italian: Postemergence, scale 0 to 100 (0 no effect, 100 complete control)
How it was run: as §1

[17] = system: oilseed rape; test: Test C preemergence; type: in vivo, Brassica napus; conditions: for Oilseed Rape plant response rating: preemergence; for Plant response rating, Oilseed Rape: Preemergence, 31 g ai/ha, scale 0 to 100, 0 no effect, 100 complete control
How it was run: as §1

[18] = 16 g ai/ha, scale 0 to 100 (0 no effect, 100 complete control)
[19] = 62 g ai/ha, scale 0 (no effect) to 100 (complete control)
[20] = 125 g ai/ha, scale 0 (no effect) to 100 (complete control)

N#Cc1cccc(Oc2ncc(F)cn2)c1-n1cc(I)cn1 [Compound 86]
Barnyardgrass plant response rating ([1]; 13 to 15 days): 0 | Plant response rating (0 to 100), Barnyardgrass [1]: 5 | Plant response rating, Barnyardgrass ([1]; 31 g ai/ha, 13 to 15 days): 5 | Plant response rating, Barnyardgrass ([1]; 62 g ai/ha): 5 | Blackgrass plant response rating [2, 18]: 0 | Blackgrass plant response rating [2, 19]: 90 | Blackgrass plant response rating [2, 20]: 98 | Plant response rating, Blackgrass [2]: 20 | Corn plant response rating [3, 18]: 0 | Corn plant response rating [3, 19]: 30 | Corn plant response rating [3, 20]: 80 | Plant response rating, Corn [3]: 25 | Plant response rating (0 to 100), Pigweed [4]: 80 | Plant response rating, Pigweed ([4]; 31 g ai/ha, 13 to 15 days): 65 | Plant response rating, Pigweed ([4]; 62 g ai/ha): 65 | Plant response rating (0 to 100), Waterhemp [5]: 75 | Plant response rating, Waterhemp ([5]; 31 g ai/ha, 13 to 15 days): 70 | Plant response rating, Waterhemp ([5]; 62 g ai/ha): 60 | Plant response rating, Barnyardgrass [6]: 80 | Barnyardgrass plant response rating [6]: 100 | Plant response rating, Foxtail, Giant [7]: 100 | Foxtail, Giant plant response rating [7]: 100 | Ragweed plant response rating [8, 18]: 5 | Ragweed plant response rating [8, 19]: 100 | Ragweed plant response rating [8, 20]: 100 | Plant response rating, Ragweed [8]: 20 | Blackgrass plant response rating ([9]; 13 to 15 days): 5 | Plant response rating (0 to 100), Blackgrass [9]: 10 | Plant response rating, Blackgrass ([9]; 31 g ai/ha, 13 to 15 days): 5 | Plant response rating, Blackgrass ([9]; 62 g ai/ha): 5 | Corn plant response rating ([10]; 13 to 15 days): 5 | Plant response rating (0 to 100), Corn [10]: 10 | Plant response rating, Corn ([10]; 31 g ai/ha, 13 to 15 days): 5 | Plant response rating, Corn ([10]; 62 g ai/ha): 5 | Barnyardgrass plant response rating [11, 18]: 5 | Barnyardgrass plant response rating [11, 19]: 40 | Barnyardgrass plant response rating [11, 20]: 95 | Plant response rating, Barnyardgrass [11]: 10 | Soybean plant response rating [12, 18]: 35 | Soybean plant response rating [12, 19]: 75 | Soybean plant response rating [12, 20]: 85 | Plant response rating, Soybean [12]: 45 | Morningglory plant response rating [13, 18]: 10 | Morningglory plant response rating [13, 19]: 60 | Morningglory plant response rating [13, 20]: 100 | Plant response rating, Morningglory [13]: 25 | Plant response rating (0 to 100), Lambsquarters [14]: 85 | Plant response rating, Lambsquarters ([14]; 31 g ai/ha, 13 to 15 days): 45 | Plant response rating, Lambsquarters ([14]; 62 g ai/ha): 65 | Waterhemp plant response rating [15, 18]: 100 | Waterhemp plant response rating [15, 19]: 100 | Waterhemp plant response rating [15, 20]: 100 | Plant response rating, Waterhemp [15]: 100 | Plant response rating (0 to 100), Ryegrass, Italian [16]: 5 | Plant response rating, Ryegrass, Italian ([16]; 31 g ai/ha, 13 to 15 days): 0 | Plant response rating, Ryegrass, Italian ([16]; 62 g ai/ha): 5 | Oilseed Rape plant response rating [17, 18]: 25 | Oilseed Rape plant response rating [17, 19]: 100 | Oilseed Rape plant response rating [17, 20]: 100 | Plant response rating, Oilseed Rape [17]: 100

N#Cc1cccc(Oc2ncc(Br)cn2)c1-n1cc(I)cn1 [Compound 88]
Barnyardgrass plant response rating ([1]; 13 to 15 days): 5 | Plant response rating (0 to 100), Barnyardgrass [1]: 10 | Plant response rating, Barnyardgrass ([1]; 31 g ai/ha, 13 to 15 days): 5 | Plant response rating, Barnyardgrass ([1]; 62 g ai/ha): 5 | Blackgrass plant response rating [2, 18]: 0 | Blackgrass plant response rating [2, 19]: 60 | Blackgrass plant response rating [2, 20]: 90 | Plant response rating, Blackgrass [2]: 5 | Corn plant response rating [3, 18]: 5 | Corn plant response rating [3, 19]: 5 | Corn plant response rating [3, 20]: 15 | Plant response rating, Corn [3]: 5 | Plant response rating (0 to 100), Pigweed [4]: 90 | Plant response rating, Pigweed ([4]; 31 g ai/ha, 13 to 15 days): 85 | Plant response rating, Pigweed ([4]; 62 g ai/ha): 85 | Plant response rating (0 to 100), Waterhemp [5]: 90 | Plant response rating, Waterhemp ([5]; 31 g ai/ha, 13 to 15 days): 75 | Plant response rating, Waterhemp ([5]; 62 g ai/ha): 85 | Plant response rating, Barnyardgrass [6]: 60 | Barnyardgrass plant response rating [6]: 80 | Plant response rating, Foxtail, Giant [7]: 100 | Foxtail, Giant plant response rating [7]: 100 | Ragweed plant response rating [8, 18]: 0 | Ragweed plant response rating [8, 19]: 5 | Ragweed plant response rating [8, 20]: 60 | Plant response rating, Ragweed [8]: 0 | Blackgrass plant response rating ([9]; 13 to 15 days): 5 | Plant response rating (0 to 100), Blackgrass [9]: 10 | Plant response rating, Blackgrass ([9]; 31 g ai/ha, 13 to 15 days): 10 | Plant response rating, Blackgrass ([9]; 62 g ai/ha): 10 | Corn plant response rating ([10]; 13 to 15 days): 5 | Plant response rating (0 to 100), Corn [10]: 10 | Plant response rating, Corn ([10]; 31 g ai/ha, 13 to 15 days): 10 | Plant response rating, Corn ([10]; 62 g ai/ha): 10 | Barnyardgrass plant response rating [11, 18]: 5 | Barnyardgrass plant response rating [11, 19]: 35 | Barnyardgrass plant response rating [11, 20]: 95 | Plant response rating, Barnyardgrass [11]: 5 | Soybean plant response rating [12, 18]: 0 | Soybean plant response rating [12, 19]: 40 | Soybean plant response rating [12, 20]: 90 | Plant response rating, Soybean [12]: 5 | Morningglory plant response rating [13, 18]: 0 | Morningglory plant response rating [13, 19]: 40 | Morningglory plant response rating [13, 20]: 90 | Plant response rating, Morningglory [13]: 5 | Plant response rating (0 to 100), Lambsquarters [14]: 75 | Plant response rating, Lambsquarters ([14]; 31 g ai/ha, 13 to 15 days): 75 | Plant response rating, Lambsquarters ([14]; 62 g ai/ha): 60 | Waterhemp plant response rating [15, 18]: 98 | Waterhemp plant response rating [15, 19]: 100 | Waterhemp plant response rating [15, 20]: 100 | Plant response rating, Waterhemp [15]: 100 | Plant response rating (0 to 100), Ryegrass, Italian [16]: 0 | Plant response rating, Ryegrass, Italian ([16]; 31 g ai/ha, 13 to 15 days): 5 | Plant response rating, Ryegrass, Italian ([16]; 62 g ai/ha): 10 | Oilseed Rape plant response rating [17, 18]: 10 | Oilseed Rape plant response rating [17, 19]: 70 | Oilseed Rape plant response rating [17, 20]: 100 | Plant response rating, Oilseed Rape [17]: 100
